Assay results from paper doi:10.1101/2024.08.13.607785v1 (biorxiv, 2024).

Legend:
Parameters in all cases: species or system mixed lysate of K562, MV4-11, THP-1, NCI-H1155
[1] = biological target: Mitogen-activated protein kinase 14 ; MAPK14 ; Q16539 (Homo sapiens, UniProt Q16539); conditions: DIA-MS residual binding; binder
[2] = biological target: T1, Serine/threonine-protein kinase NLK ; NLK ; Q9UBE8 (Homo sapiens, UniProt Q9UBE8); conditions: DIA-MS residual binding; binder
T1 sequence (Q9UBE8 1-527): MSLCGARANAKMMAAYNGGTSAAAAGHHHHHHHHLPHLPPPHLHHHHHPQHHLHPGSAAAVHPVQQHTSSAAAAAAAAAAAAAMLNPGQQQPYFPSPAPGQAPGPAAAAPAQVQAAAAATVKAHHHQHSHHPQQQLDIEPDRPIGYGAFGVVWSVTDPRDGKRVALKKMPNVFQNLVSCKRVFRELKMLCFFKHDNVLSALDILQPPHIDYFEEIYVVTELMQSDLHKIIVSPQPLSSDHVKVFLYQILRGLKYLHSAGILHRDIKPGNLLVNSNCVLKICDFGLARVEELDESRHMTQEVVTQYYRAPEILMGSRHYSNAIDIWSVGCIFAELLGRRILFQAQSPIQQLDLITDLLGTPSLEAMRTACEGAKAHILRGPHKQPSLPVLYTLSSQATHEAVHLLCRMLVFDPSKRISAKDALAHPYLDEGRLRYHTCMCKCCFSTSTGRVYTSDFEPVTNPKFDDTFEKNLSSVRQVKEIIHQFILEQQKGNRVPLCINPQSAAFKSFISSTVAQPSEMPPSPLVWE

[3] = biological target: T2, Cyclin-G-associated kinase ; GAK ; O14976 (Homo sapiens, UniProt O14976); conditions: DIA-MS residual binding; binder
T2 sequence (O14976 1-1311): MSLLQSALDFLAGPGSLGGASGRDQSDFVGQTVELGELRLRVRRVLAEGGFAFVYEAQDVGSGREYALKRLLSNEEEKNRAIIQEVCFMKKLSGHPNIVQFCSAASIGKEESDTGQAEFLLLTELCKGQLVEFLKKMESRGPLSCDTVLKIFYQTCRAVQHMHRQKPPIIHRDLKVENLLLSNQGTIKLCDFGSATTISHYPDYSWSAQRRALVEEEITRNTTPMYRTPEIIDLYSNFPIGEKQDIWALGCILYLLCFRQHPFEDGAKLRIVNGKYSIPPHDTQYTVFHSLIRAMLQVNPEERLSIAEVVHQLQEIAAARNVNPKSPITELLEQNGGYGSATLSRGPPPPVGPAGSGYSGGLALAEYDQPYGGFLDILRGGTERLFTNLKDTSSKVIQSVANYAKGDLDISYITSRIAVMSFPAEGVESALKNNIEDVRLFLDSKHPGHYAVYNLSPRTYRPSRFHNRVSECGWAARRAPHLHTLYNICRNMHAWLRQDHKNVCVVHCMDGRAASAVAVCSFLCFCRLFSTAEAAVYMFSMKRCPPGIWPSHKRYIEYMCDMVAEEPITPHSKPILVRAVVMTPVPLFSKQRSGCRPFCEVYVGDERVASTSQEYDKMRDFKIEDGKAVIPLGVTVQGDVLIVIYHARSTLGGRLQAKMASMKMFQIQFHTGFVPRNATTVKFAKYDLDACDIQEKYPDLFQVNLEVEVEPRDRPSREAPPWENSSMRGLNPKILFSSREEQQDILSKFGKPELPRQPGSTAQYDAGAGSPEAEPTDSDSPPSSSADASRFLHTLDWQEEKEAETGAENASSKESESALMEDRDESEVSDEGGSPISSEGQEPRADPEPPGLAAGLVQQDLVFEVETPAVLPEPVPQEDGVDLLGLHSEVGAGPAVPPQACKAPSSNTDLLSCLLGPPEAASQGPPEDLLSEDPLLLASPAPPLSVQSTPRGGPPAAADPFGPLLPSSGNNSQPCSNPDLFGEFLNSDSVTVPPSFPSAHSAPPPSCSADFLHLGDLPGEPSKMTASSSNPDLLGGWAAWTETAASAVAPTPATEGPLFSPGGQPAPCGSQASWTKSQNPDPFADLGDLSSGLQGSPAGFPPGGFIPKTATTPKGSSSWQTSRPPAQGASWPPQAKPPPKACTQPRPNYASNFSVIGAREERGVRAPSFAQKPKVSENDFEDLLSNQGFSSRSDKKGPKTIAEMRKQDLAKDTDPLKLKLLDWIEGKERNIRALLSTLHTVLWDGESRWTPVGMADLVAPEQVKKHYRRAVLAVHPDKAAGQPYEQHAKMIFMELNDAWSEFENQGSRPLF

[4] = biological target: Ephrin type-A receptor 1 ; EPHA1 ; P21709 (Homo sapiens, UniProt P21709); conditions: DIA-MS residual binding; binder
Chain of Ephrin type-A receptor 1 ; EPHA1 ; P21709 (P21709 whole entry): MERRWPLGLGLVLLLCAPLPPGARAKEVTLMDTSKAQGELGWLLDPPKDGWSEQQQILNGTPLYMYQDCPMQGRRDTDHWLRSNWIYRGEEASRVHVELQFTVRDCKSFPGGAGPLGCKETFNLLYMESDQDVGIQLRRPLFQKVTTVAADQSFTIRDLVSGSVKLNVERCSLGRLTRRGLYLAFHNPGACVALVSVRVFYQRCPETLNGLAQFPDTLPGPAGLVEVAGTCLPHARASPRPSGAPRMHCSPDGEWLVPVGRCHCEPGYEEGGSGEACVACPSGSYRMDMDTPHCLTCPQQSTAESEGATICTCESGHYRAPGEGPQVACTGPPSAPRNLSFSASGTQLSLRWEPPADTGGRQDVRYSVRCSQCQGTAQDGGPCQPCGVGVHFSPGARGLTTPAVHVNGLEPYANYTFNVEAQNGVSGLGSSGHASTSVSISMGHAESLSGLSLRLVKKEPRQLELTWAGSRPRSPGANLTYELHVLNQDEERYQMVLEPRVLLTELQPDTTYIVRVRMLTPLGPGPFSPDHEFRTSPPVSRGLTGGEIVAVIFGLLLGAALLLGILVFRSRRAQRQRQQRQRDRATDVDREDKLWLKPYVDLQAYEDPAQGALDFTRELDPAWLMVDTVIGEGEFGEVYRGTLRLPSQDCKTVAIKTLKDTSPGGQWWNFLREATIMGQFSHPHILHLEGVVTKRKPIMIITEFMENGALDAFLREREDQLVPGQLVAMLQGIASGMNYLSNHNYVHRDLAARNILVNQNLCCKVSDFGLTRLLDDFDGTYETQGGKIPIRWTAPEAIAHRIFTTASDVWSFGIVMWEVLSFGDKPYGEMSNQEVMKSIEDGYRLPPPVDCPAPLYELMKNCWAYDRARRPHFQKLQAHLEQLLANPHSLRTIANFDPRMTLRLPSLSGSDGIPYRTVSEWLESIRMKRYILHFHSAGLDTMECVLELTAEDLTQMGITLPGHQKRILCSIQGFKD

[5] = biological target: Serine/threonine-protein kinase LMTK2 ; LMTK2 ; Q8IWU2 (Homo sapiens, UniProt Q8IWU2); conditions: DIA-MS residual binding; binder
Chain of Serine/threonine-protein kinase LMTK2 ; LMTK2 ; Q8IWU2 (Q8IWU2 whole entry, one chain of several): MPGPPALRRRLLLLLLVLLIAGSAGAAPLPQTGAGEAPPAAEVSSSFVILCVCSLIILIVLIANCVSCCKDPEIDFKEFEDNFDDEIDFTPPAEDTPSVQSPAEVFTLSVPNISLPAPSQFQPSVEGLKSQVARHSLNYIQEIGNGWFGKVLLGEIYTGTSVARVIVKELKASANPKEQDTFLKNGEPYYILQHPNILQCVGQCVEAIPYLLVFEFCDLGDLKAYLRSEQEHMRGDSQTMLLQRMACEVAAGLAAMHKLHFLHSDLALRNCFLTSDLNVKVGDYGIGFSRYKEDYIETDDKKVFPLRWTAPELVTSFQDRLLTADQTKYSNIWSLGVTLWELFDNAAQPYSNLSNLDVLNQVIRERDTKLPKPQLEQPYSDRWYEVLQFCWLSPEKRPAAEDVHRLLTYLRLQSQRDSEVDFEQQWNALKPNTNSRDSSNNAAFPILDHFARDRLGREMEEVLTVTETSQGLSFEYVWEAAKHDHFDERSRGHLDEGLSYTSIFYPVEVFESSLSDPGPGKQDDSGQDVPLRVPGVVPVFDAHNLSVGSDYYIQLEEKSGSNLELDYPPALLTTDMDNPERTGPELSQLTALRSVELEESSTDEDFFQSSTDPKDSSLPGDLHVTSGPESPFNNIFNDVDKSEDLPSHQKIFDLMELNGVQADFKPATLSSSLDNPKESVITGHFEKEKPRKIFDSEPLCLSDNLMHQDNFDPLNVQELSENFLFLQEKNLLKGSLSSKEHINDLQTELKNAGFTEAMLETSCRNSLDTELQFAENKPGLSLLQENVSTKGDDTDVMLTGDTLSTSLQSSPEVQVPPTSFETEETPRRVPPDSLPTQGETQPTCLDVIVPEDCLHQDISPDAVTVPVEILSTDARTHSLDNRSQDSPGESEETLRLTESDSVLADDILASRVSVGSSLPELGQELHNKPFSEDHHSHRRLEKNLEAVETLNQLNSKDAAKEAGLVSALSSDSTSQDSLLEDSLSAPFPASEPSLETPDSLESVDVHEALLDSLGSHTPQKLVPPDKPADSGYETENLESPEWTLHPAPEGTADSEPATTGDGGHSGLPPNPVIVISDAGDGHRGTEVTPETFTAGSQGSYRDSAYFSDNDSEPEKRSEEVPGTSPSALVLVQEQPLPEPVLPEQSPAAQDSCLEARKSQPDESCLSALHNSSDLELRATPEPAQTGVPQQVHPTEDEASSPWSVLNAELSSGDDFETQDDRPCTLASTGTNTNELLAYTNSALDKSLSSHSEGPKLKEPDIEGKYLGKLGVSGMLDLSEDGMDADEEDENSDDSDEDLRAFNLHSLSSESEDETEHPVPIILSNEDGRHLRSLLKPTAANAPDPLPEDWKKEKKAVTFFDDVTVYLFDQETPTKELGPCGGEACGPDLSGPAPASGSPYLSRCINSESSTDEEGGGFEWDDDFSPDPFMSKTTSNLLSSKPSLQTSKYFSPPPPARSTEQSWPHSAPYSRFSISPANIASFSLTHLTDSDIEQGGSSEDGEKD

[6] = biological target: Tyrosine-protein kinase Yes ; YES1 ; P07947 (Homo sapiens, UniProt P07947); conditions: binder
Chain of Tyrosine-protein kinase Yes ; YES1 ; P07947 (P07947 whole entry): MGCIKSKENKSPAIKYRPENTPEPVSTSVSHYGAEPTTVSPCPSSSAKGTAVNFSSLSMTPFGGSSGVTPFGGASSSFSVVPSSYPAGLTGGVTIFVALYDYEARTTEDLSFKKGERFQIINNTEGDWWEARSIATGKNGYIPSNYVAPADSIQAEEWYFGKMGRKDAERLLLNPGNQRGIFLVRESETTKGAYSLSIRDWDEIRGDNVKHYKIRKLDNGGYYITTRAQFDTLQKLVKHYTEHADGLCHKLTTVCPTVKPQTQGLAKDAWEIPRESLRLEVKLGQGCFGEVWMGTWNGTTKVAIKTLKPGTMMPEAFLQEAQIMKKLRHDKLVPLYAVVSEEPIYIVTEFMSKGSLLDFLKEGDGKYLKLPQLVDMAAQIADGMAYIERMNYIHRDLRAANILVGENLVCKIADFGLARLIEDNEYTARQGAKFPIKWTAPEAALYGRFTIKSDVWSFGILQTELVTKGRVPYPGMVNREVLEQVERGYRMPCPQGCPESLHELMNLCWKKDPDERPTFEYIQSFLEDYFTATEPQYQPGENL

[7] = biological target: Tyrosine-protein kinase FRK ; FRK ; P42685 (Homo sapiens, UniProt P42685); conditions: DIA-MS residual binding; binder
Chain of Tyrosine-protein kinase FRK ; FRK ; P42685 (P42685 whole entry, the tested form may be a part): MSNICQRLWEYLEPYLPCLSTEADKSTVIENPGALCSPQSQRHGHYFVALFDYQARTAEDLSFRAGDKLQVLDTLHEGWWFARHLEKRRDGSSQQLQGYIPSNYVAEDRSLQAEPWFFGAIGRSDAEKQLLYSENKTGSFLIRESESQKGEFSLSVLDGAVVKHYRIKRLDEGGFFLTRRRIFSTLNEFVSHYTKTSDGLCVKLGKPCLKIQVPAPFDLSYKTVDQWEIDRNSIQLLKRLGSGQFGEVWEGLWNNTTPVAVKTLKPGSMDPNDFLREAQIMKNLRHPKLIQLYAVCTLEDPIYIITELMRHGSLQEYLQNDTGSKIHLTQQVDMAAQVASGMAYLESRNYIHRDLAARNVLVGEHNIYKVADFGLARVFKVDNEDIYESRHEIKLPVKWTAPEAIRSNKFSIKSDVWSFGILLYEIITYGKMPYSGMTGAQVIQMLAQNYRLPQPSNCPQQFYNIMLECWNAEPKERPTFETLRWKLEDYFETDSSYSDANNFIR

[8] = biological target: Epithelial discoidin domain-containing receptor 1 ; DDR1 ; Q08345 (Homo sapiens, UniProt Q08345); conditions: binder
Chain of Epithelial discoidin domain-containing receptor 1 ; DDR1 ; Q08345 (Q08345 whole entry, the tested form may be a part): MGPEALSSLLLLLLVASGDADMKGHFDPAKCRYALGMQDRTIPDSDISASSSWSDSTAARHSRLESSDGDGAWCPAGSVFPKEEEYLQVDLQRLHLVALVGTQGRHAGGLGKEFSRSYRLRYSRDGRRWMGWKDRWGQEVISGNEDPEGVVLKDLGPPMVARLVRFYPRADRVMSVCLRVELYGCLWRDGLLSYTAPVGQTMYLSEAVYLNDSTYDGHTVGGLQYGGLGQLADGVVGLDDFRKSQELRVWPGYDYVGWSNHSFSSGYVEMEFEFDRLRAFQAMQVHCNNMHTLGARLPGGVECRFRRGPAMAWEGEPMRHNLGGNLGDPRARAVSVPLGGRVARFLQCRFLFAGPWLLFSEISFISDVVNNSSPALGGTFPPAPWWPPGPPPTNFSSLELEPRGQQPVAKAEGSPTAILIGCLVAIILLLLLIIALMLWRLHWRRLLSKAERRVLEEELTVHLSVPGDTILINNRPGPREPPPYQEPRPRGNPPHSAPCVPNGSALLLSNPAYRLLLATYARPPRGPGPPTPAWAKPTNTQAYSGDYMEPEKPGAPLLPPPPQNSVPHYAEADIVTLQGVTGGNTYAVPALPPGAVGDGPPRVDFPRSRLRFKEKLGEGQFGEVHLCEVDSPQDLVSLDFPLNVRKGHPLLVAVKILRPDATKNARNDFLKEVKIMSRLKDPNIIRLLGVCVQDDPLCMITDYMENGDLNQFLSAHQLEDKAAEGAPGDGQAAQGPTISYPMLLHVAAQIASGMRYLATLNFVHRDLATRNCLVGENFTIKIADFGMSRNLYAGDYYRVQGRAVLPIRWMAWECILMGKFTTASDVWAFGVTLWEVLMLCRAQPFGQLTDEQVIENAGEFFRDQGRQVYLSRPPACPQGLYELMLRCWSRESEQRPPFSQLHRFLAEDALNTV

Chain of Mitogen-activated protein kinase 14 ; MAPK14 ; Q16539 (Q16539 whole entry): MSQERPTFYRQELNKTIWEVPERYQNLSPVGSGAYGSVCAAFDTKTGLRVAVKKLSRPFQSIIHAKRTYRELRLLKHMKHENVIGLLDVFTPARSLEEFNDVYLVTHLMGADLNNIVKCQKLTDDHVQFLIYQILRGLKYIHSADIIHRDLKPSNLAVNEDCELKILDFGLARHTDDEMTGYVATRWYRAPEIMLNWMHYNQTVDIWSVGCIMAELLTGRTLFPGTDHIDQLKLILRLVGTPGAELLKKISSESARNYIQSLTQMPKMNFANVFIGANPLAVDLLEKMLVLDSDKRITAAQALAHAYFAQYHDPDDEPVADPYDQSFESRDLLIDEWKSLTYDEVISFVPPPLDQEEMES

DIA-MS / % Intensity (30 µM/DMSO) [1]: 32.28%
DIA-MS / % Intensity (30 µM/DMSO) [2]: 47.56%
DIA-MS / % Intensity (30 µM/DMSO) [3]: 4.611%
DIA-MS / % Intensity (30 µM/DMSO) [4]: 39.55%
DIA-MS / % Intensity (30 µM/DMSO) [5]: 9.818%
DIA-MS / % Intensity (30 µM/DMSO) [6]: 2.565%
DIA-MS / % Intensity (30 µM/DMSO) [7]: 2.249%
DIA-MS / % Intensity (30 µM/DMSO) [8]: 2.942%
SMILES: Cc1nc(Nc2ncc(C(=O)Nc3c(C)cccc3Cl)s2)cc(N2CCN(CCO)CC2)n1 [dasatinib]
